In ChEMBL document CHEMBL4422615, “Novel non-xanthine antagonist of the A2B adenosine receptor: From HTS hit to lead structure” (Eur J Med Chem, 2019):
pEC50, pIC50: −log10 of the molar value.

Key:
Adenosine receptor A2b [1] = target: T1, Adenosine receptor A2b (Homo sapiens, UniProt P29275); test: Displacement of [3H]DPCPX from human A2B adenosine receptor expressed in HEK293 cell membranes after 60 mins by radioligand displacement assay
T1 sequence (P29275 whole entry): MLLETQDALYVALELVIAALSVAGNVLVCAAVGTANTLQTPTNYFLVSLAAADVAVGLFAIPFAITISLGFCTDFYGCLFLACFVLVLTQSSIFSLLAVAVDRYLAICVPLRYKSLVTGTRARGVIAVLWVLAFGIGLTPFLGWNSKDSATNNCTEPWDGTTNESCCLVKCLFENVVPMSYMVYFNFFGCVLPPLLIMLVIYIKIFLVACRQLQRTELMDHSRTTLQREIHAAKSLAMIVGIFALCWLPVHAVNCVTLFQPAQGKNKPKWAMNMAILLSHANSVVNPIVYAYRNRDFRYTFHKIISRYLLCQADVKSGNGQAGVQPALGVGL

Adenosine receptor A2b [2] = target: T1, Adenosine receptor A2b; test: Antagonist activity at recombinant human A2B adenosine receptor expressed in CHO cells after 3 to 4 hrs by luciferase reporter gene assay; type: cell-based
[3] = Intrinsic clearance in rat hepatocytes by MS/MS analysis; type: ADME, cell-based, Hepatocyte; conditions: for predicted hepatic clearance: read-out: CLH (converted)
Cytochrome P450 1A2 = target: T2, Cytochrome P450 1A2 (Homo sapiens, UniProt P05177); test: Inhibition of CYP1A2 in human liver microsomes using phenacetin as substrate after 15 mins in presence of NADPH by LC-MS/MS analysis; type: ADME
T2 sequence (P05177 whole entry): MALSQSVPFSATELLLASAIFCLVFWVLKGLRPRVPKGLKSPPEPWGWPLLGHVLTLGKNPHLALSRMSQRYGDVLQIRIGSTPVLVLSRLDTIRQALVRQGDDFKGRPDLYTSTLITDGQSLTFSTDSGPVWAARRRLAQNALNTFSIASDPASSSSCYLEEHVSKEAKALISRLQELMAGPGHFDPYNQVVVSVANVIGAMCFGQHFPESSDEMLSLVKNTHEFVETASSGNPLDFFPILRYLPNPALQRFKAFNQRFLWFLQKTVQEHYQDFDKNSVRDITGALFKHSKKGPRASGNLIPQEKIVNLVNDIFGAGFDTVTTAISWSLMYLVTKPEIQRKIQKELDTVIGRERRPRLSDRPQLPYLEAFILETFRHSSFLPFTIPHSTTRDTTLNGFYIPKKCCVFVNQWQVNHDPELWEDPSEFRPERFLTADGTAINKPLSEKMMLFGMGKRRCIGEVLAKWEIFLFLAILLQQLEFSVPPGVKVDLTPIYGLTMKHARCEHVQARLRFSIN

Cytochrome P450 2C8 = target: T3, Cytochrome P450 2C8 (Homo sapiens, UniProt P10632); test: Inhibition of CYP2C8 in human liver microsomes using amodiaquine as substrate after 15 mins in presence of NADPH by LC-MS/MS analysis; type: ADME
T3 sequence (P10632 whole entry): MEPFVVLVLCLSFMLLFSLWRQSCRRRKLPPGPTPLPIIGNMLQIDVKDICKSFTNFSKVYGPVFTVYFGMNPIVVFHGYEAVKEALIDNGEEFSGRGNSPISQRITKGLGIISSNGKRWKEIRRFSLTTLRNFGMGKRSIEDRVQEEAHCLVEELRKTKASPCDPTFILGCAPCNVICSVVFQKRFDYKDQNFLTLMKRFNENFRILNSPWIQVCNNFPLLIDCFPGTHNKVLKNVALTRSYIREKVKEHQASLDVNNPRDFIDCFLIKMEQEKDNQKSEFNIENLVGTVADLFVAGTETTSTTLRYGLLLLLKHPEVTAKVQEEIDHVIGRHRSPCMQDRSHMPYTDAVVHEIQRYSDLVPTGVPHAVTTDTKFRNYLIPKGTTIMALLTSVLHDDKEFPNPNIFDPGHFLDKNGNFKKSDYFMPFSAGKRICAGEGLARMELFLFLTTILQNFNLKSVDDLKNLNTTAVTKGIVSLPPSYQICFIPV

Cytochrome P450 2C9 = Cytochrome P450 2C9 (Homo sapiens, UniProt P11712); test: Inhibition of CYP2C9 in human liver microsomes using diclofenac as substrate after 15 mins in presence of NADPH by LC-MS/MS analysis; type: ADME
Sequence of Cytochrome P450 2C9 (P11712 whole entry): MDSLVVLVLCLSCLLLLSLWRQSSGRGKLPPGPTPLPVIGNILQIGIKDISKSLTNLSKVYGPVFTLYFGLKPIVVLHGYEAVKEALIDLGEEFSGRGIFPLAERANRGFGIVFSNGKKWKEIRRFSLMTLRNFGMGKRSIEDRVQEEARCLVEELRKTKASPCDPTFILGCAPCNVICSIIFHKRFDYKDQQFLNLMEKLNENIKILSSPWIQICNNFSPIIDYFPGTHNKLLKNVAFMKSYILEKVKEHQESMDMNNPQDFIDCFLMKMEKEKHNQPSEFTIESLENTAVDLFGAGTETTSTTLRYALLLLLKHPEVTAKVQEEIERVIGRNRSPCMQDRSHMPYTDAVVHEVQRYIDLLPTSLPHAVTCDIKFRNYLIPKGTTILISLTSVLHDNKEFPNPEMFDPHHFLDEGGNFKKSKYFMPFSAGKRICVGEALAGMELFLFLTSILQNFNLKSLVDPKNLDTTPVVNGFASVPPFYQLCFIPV

Cytochrome P450 2D6 = Cytochrome P450 2D6 (Homo sapiens, UniProt P10635); test: Inhibition of CYP2D6 in human liver microsomes using dextromethorphan as substrate after 15 mins in presence of NADPH by LC-MS/MS analysis; type: ADME
Sequence of Cytochrome P450 2D6 (P10635 whole entry): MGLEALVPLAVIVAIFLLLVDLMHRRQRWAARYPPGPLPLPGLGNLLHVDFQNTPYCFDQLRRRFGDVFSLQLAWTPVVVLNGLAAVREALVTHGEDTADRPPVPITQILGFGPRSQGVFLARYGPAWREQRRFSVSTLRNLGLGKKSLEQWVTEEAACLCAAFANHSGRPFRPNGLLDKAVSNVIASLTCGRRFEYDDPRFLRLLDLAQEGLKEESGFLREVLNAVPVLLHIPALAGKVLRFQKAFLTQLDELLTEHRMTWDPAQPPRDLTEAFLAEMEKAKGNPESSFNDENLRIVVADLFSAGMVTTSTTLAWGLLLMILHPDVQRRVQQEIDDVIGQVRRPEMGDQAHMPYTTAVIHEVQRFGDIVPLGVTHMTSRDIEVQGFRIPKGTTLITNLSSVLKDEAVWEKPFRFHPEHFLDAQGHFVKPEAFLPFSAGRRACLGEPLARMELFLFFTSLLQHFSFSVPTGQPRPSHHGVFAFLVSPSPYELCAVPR

Cytochrome P450 3A4 [4] = target: T4, Cytochrome P450 3A4 (Homo sapiens, UniProt P08684); test: Inhibition of CYP3A4 in human liver microsomes using midazolam as substrate preincubated for 30 mins followed by substrate addition measured after 10 mins in presence of NADPH by LC-MS/MS analysis; type: ADME
T4 sequence (P08684 whole entry): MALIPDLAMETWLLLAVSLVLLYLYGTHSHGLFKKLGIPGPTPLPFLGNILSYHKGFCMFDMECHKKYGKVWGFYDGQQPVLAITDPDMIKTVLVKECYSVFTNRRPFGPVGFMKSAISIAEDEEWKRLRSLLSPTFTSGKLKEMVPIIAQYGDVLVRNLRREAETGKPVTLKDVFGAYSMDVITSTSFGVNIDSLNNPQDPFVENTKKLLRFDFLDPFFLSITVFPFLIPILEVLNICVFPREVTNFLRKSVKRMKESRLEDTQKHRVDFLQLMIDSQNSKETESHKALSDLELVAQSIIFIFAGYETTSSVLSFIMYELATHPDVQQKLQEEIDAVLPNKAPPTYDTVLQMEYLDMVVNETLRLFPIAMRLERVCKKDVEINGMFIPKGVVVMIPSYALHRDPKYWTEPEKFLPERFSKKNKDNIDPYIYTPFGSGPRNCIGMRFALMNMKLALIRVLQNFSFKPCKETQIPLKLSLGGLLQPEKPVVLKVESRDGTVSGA

Cytochrome P450 3A4 [5] = target: T4, Cytochrome P450 3A4; test: Time dependent inhibition of human liver microsomes CYP3A4 using midazolam as substrate in presence of NADPH by LC-MS/MS analysis; type: ADME
[6] = Blood clearance in mouse by measuring intrinsic clearance in mouse liver microsomes by MS/MS analysis; type: ADME
[7] = Blood clearance in rat by measuring Intrinsic clearance in rat hepatocytes by MS/MS analysis; type: ADME, cell-based
[8] = Apparent permeability from apical side to basolateral side in human Caco2 cells; type: ADME, cell-based; conditions: Caco-2
[9] = Efflux ratio in human Caco2 cells; type: ADME, cell-based; conditions: Caco-2
[10] = target: T5, Nuclear receptor subfamily 1 group I member 2 (Homo sapiens, UniProt O75469); test: Activation of PXR in human HepG2 cells assessed as induction of CYP3A4 expression by luciferase reporter gene assay; type: ADME, cell-based
T5 sequence (O75469 whole entry): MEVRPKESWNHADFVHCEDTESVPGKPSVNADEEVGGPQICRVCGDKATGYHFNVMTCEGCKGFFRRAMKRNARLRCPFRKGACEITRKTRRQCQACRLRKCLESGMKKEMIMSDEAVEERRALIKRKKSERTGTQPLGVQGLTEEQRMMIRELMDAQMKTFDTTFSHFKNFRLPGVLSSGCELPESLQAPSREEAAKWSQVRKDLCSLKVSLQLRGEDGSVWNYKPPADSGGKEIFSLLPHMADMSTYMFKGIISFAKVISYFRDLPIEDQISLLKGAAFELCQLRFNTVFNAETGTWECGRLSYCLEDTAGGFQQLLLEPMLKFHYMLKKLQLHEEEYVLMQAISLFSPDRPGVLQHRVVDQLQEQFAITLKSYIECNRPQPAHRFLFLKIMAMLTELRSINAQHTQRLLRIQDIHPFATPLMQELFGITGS

PXR = target: T6, PXR (Homo sapiens, UniProt O75469); test: Activation of PXR in human HepG2 cells assessed as induction of CYP3A4 expression at 2 x 10^-9 to 50 x 10^-6 mol/L by luciferase reporter gene assay relative to control; type: ADME, cell-based
T6 sequence (O75469 whole entry): T5 sequence (O75469 whole entry)

[11] = Plasma clearance in mouse; type: ADME, organism-based
Homo sapiens [12] = organism: Homo sapiens; test: Selectivity index, ratio of IC50 for human A1 adenosine receptor expressed in CHO cell membranes to IC50 for human A2B adenosine receptor expressed in HEK293 cell membranes; type: cell-based
Homo sapiens [13] = organism: Homo sapiens; test: Selectivity index, ratio of IC50 for human A2A adenosine receptor expressed in HEK293 cell membranes to IC50 for human A2B adenosine receptor expressed in HEK293 cell membranes; type: cell-based
Homo sapiens [14] = organism: Homo sapiens; test: Selectivity index, ratio of IC50 for human A3 adenosine receptor expressed in HEK293 cell membranes to IC50 for human A2B adenosine receptor expressed in HEK293 cell membranes; type: cell-based

pIC50 (Adenosine receptor A2b [1]) | predicted hepatic clearance [3] | SMILES | Ratio IC50 (Homo sapiens [12]) | Ratio IC50 (Homo sapiens [13]) | Ratio IC50 (Homo sapiens [14]) | also measured
6.28 |  | Cc1csc2c1c(=O)n(CCc1ccccc1)c(=O)n2CC1CCCO1 (racemic) |  |  |  | pEC50 (Adenosine receptor A2b [2]): < 5.00
6.74 |  | Cc1csc2c1c(=O)n(CCc1ccccc1)c(=O)n2CC1CCCO1 (stereo in doubt; 7) |  |  |  | CLhep predicted [3]: 66.7 mL/min/kg; pIC50 (Cytochrome P450 1A2): 5.19; pIC50 (Cytochrome P450 2C8): 5.00; pIC50 (Cytochrome P450 2C9): 5.08; pIC50 (Cytochrome P450 2D6): < 4.70; pIC50 (Cytochrome P450 3A4 [4]): 4.80; TDI (Cytochrome P450 3A4 [5]): Not Active; CLhep predicted [6]: 81.7 mL/min/kg; CLhep predicted [7]: 66.7 mL/min/kg; Papp A→B [8]: 21 ×10⁻⁶ cm/s; efflux ratio [9]: 0.69; MEC [10]: 2 ×10⁻⁶ mol/L; Emax (PXR): 85%; clearance [11]: 43.3 mL/min/kg
7.41 | 35 mL/min/kg | CCN(CC(C)(C)O)C(=O)c1sc2c(c1C)c(=O)n(CC)c(=O)n2CCC(F)(F)F | 11 | 19 | 170 | 
7.14 | 68.3 mL/min/kg | Cc1csc2c1c(=O)n(CCc1ccccc1F)c(=O)n2CCC(F)(F)F | 36 | 86 | 91 | 
7.25 | 66.7 mL/min/kg | Cc1csc2c1c(=O)n(CCc1ccccc1)c(=O)n2CCC(F)(F)F | 25 | 81 | 120 | 
5.47 | 56.7 mL/min/kg | Cc1[nH]cnc1Cn1c(=O)n(CCc2ccccc2)c(=O)c2c(C)csc21 | 3 | 3 | 2 | 
< 5.00 | 31.7 mL/min/kg | COCCn1c(=O)[nH]c(=O)c2c(C)csc21 | 1 | 1 | 0.61 to 1 | 
7.26 | 66.7 mL/min/kg | Cc1csc2c1c(=O)n(CCc1cccnc1)c(=O)n2CCC(F)(F)F | 40 | 21 | 120 | 
7.38 | 66.7 mL/min/kg | CCN(CC)C(=O)c1sc2c(c1C)c(=O)n(CCc1ccccc1)c(=O)n2CCOC | 23 | 3 | 160 | 
5.89 | 46.7 mL/min/kg | Cc1csc2c1c(=O)n(CCc1ccccc1)c(=O)n2Cc1cnc[nH]1 | 3 | 8 | 5 | 
7.92 | 58.3 mL/min/kg | COCCn1c(=O)n(CCc2ccccc2)c(=O)c2c(C)c(Cn3ccnc3)sc21 | 33 | 120 | 530 | 
7.52 | 68.3 mL/min/kg | COCCn1c(=O)n(CCc2ccccc2)c(=O)c2c(C)c(C(O)c3ccccc3)sc21 (configuration not stated) | 1 | 21 | 230 | 
